In PubChem BioAssay (NCI):
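96-well plates; 48 h exposure; 5 concentrations. Endpoints by linear interpolation between flanking doses. Not reached: highest tested concentration assigned. Here, GI50 denotes the concentration required for 50% inhibition of growth. TGI: concentration producing complete growth inhibition.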

Assays:
Assay in all cases: NCI-60 cell line screen, 48 h
[1] = test system: SF-295 CNS
[2] = test system: HCT-116 colon
[3] = test system: SNB-75 CNS
[4] = test system: BT-549 breast
[5] = test system: UO-31 renal
[6] = test system: ACHN renal
[7] = test system: OVCAR-3 ovarian
[8] = test system: OVCAR-8 ovarian
[9] = test system: MOLT-4 leukemia
[10] = test system: A498 renal

Compound	TGI [1] [µM]	TGI [2] [µM]	TGI [3] [µM]	TGI [4] [µM]	TGI [5] [µM]	TGI [6] [µM]	TGI [7] [µM]	TGI [8] [µM]	TGI [9] [µM]	TGI [10] [µM]	GI50 [1] [nM]	GI50 [3] [µM]	GI50 [10] [µM]	GI50 [4] [µM]	GI50 [5] [µM]	GI50 [6] [µM]	GI50 [7] [nM]	GI50 [8] [µM]	GI50 [9] [µM]
CCOC(=O)c1c(-c2cccc(Cl)c2)c(C(=O)OC)c(C)c2sc(C=O)nc12	32.5	21.1	> 100	33.7	37.8	31.4	31.3	41.9	48.1										
Cc1ccc(OCC2=NC3S/C(=C/c4ccc([N+](=O)[O-])o4)C(=O)N3N2)cc1 (configuration not stated)	30.4	15.9	30	25.1	34.8	3.14	4.12	14.3	6.94	37.8									
COC(=O)C1=C(OC(=O)/C=C/c2ccc(Cl)cc2)C(C(=O)OC)[C@]2(O)[C@@H](C(=O)OC)[C@H]1C[C@@H](c1ccccc1)[C@@H]2C(=O)OC (some centres not stated)	> 100	> 29.4	> 100	> 28.5	> 30.9	> 100	> 100	> 30.7	> 100	44.2									
O/C(=C\c1nc2ccccc2nc1/C=C(\O)c1ccc(F)cc1)c1ccc(F)cc1		> 100	> 100	> 100	> 100	> 100	> 100	> 100	> 100	> 100									
N#Cc1ccccc1C#C/C=C\C#Cc1ccccc1N	5.01		> 25.3	> 28.2	> 25.7	> 38.3	2.64	> 30	> 100	94.1	1280	6.13	34.9	8.39	4.79	7.88	165	7.27	3.68
CC(=O)Nc1ccc(C(=O)NN2C(=O)C(Cl)C2c2cccc([N+](=O)[O-])c2)cc1 (configuration not stated)	> 100	> 100	> 100		> 100	> 100	> 100	> 100	> 100										
CCN1CCN(c2nc3ccccc3nc2C(=O)c2ccc(OC)c(OC)c2)CC1	30	19.7	30.1	65.6	47.1	26.8	60.6	29.9	30.5	> 100									
Cc1cc2ccc(OC(=O)c3ccc(N=C(N)N)cc3)cc2oc1=O	> 100	76.5	71.9	64.6	> 100	> 100	45.9	> 100	54.4	43.9									
CS(C)(=O)=Nn1c(=O)n2n(c1=O)C1c3ccccc3C2c2ccccc21	> 100				> 100	> 100	> 100	> 100	> 100	> 100									
Cn1c2[n+](c3nc(N)[nH]c(=O)c31)C1OC(C2)C(O)C1O (configuration not stated)	> 100	> 100	> 100		> 100	> 100	> 100	> 100	> 100	> 100									
COc1cccc(/C=N/[N-]C(N)=O)c1[O-].[Ni+2].[OH3+]	2.36	0.27	1.57		2.09	2.07	0.596	1.66	1.58	3.15									
CC1=CC(O)C(C(O)(C(F)(F)F)C(F)(F)F)C(C)(C)C1 (configuration not stated)	> 10	> 10	> 10	> 10		> 10	> 10	> 10	> 10	0.0823									
Nc1nnc(CCC(=O)Nc2cc(Cl)ccc2Cl)n1N	> 100	> 100	> 100		> 100	> 100	> 100	> 100	> 100	> 100									
O=S(=O)(O)c1ccc2c(N=Nc3ccc(N=Nc4ccccc4)cc3)c(O)c(S(=O)(=O)O)cc2c1	> 100	> 100		> 100	> 100	> 100	> 100	> 100	> 100										
Cc1cc(C)c2c(=O)n(CC(O)CN3CCN(CCOCCO)CC3)sc2n1 (configuration not stated)	> 100	30.8	5.78	31.1	47.8	35	41.3	39.9	73.5	38.9									
OCCCSCCO	> 100	> 100	> 100	> 100	> 100	> 100	> 100	> 100	> 100	> 100									
Cc1n[n+]([O-])c(C)cc1[N+](=O)[O-]		31.6	54	51.5	29.7	30.2	27.6	31.6		40.6									
CC1(C(=O)O)C[C@](C)(C(=O)OCc2ccccc2)C[C@](C)(C(=O)OCc2ccccc2)C1 (some centres not stated)	61.9	57.9	79.7	65.6	40.7	57.5	73.7	> 100	67.6										
